Consider one compound from paper PMC9229378, “Copper-67-Labeled Bombesin Peptide for Targeted Radionuclide Therapy of Prostate Cancer” (Pharmaceuticals, 2022).

Data set [1] concerns GRPR-positive PC-3 cell line. Description: Cell binding and internalization. It is filed as cell-based. Conditions: PC-3 cells. How it is done:
The PC-3 cell line was purchased from ATCC (Manassas, VA, USA), revived from liquid nitrogen storage, and cultured at 37 °C, 5% CO2. PC-3 cells were cultured in media containing DMEM, 10% heat-inactivated fetal bovine serum (FBS) (Gibco, Thermo Fisher Scientific, Inc., Waltham, MA, USA), and 10 mM HEPES.
A PC-3 cell suspension was prepared in 1X PBS at a concentration of 10^6 cells/100 μL. Eppendorf tubes (in triplicates) were pretreated with 5% bovine serum albumin (BSA) in PBS to block non-specific binding. Tyr^4-BBN, as a blocking agent, was diluted in 5% BSA in PBS. Then, 100 μL of cells and either 20 μg block or PBS 1X were added to each tube. Approximately 100,000 cpm of [^67Cu]Cu-SAR-BBN was added to the tubes. Cells were incubated at 37 °C at moderate speed to prevent cell settling. After each specified time point (30, 60, 120, 240, and 360 min), cells were centrifuged and the supernatant was aspirated from cell pellets, which was followed by two additional rinses with ice-cold PBS. Cells pellets were then collected and counted for activity on a gamma counter. To determine the fraction of internalized radiotracer, cells were treated with 2 × 0.5 mL of 20 mM sodium acetate (pH 4.0) for 2 min to remove surface-bound radioactivity and counted again for activity.

Data set [2] is described as follows: Treatment-related toxicity (body weight, H&E histology of kidney, pancreas, liver). The class given is in vivo, athymic nude mice. How it is done: To assess the therapeutic potential of [^67Cu]Cu-SAR-BBN, athymic nude mice bearing subcutaneous PC-3 tumors with a tumor size of ~150 mm^3 were randomly assigned into 2 groups (n = 12 mice per group). For treatment, mice were dosed intravenously with three injections of 24 MBq [^67Cu]Cu-SAR-BBN on days 0, 2, and 4, followed by a drug-free week before the injections of 24 MBq on days 14, 16, and 18. The total activity injected corresponded to 144 MBq. The control group was injected via tail vein with six injections of 0.9% saline at the same time points. Body weight and tumor volume (through caliper measurements) were monitored and recorded three times a week. Tumor size was calculated by the following formula: L × W^2/2, where L is the long diameter of the tumor and W is the short diameter of the tumor. […] Any remaining mice at day 54 were euthanized, and tumor volume and survival curves were generated and analyzed to evaluate the efficacy of [^67Cu]Cu-SAR-BBN. Percentage tumor growth inhibition was calculated as 100 × (1 − ΔT/ΔC), where ΔC and ΔT were determined by subtracting the mean tumor volume (in the vehicle control and treated group, respectively) on day 0 of treatment from the mean tumor volume on day 19 (the last day all mice remained in the study). […]

A further data set deals with PC-3 tumors. Description: Tumor histology and Ki-67 immunostaining. It is filed as in vivo, athymic nude mice. Here is the method:
The kidneys, pancreas, livers, and tumors of 4 control mice and 4 treated mice were harvested and fixed in neutral buffered formalin. After fixation and dehydration, tissue samples were embedded in paraffin, and tissue sections were then stained with either hematoxylin and eosin (H&E) or Ki-67 for microscopic examination. H&E staining of tissue samples was prepared by the Anatomic and Molecular Pathology Core Lab, Washington University in St Louis. Ki-67 immunostaining was performed on 5 µm tissue sections of PC-3 tumors. The slides were baked in 55 °C oven for 60 min. The sections were deparaffinized, and heat-induced antigen retrieval was performed in citrate buffer 0.1 M pH 6.0 at 92 °C. After 20 min, the slides were cooled in 4 °C fridge for 15 min. The sections were then blocked with Dako Endogenous Enzyme Block (Dako North America, Inc., Carpinteria, CA, USA) for 10 min and washed twice with Dako Wash Buffer 1X. The sections were blocked with 10% goat serum in PBS for another 45 min and washed 2 × 5 min with Dako Wash Buffer 1X. The slides were then rinsed and incubated with Ki-67 antibody (1:100 dilution) overnight at 4 °C. […] Staining results were assessed by Olympus fluorescent microscope (BX51) and the cell Sense software in a blinded manner.

Consider `CC(C)C[C@H](NC(=O)C[C@H](O)[C@H](CC(C)C)NC(=O)[C@H](Cc1c[nH]cn1)NC(=O)CNC(=O)[C@@H](NC(=O)[C@H](C)NC(=O)[C@H](Cc1c[nH]c2ccccc12)NC(=O)[C@H](CCC(N)=O)NC(=O)[C@@H](Cc1ccccc1)NC(=O)CCOCCOCCOCCOCCNC(=O)CCCC(=O)NC12CNCCNCC(C)(CNCCNC1)CNCCNC2)C(C)C)C(N)=O` [[^67Cu]Cu-SAR-BBN, metal not drawn], for which, in data set [1] (37 °C), the “bound to the GRPR receptors” value is on record as “more than 50%” and the “internalized into the cells” value is listed as “about 20%”. The “total bound with blocking (non-specific binding, % of total added radioactivity)” value in data set [1] (excess Tyr4-BBN (20 μg block)) amounted to 5.8 ± 0.1%. In addition, the “histological changes in kidney, pancreas and liver vs control (H&E)” value in data set [2] (mouse, in vivo) is listed as “no significant histological changes”. Moreover, the “deaths or euthanasia not related to tumor volume” value in data set [2] (treated group, n = 12, censored in the survival analysis) is “one mouse from the [^67Cu]Cu-SAR-BBN group was euthanized due to tumor ulceration (day 38), and another two died due to unknown causes (day 5 and day 22)”. For the same compound, the “tumor necrosis (blinded review of tumor samples)” value in the data set with PC-3 tumors (4 tumors per group) is “more extensive areas of necrosis in three out of four tumors”. The “mean proliferation index (PI), Ki-67” value in the data set with PC-3 tumors (tumor areas without necrosis, immune infiltrate or host stroma, 4 tumors, control 38.1%, p = 0.26) stood at 50.3%.
